US20240217948A1, “CRYSTALLINE FORMS OF A LPA1 ANTAGONIST” (Bristol-Myers Squibb Company, priority 2022, published 2024)

Columns and labels:
[1] = system: idiopathic pulmonary fibrosis; conditions: patients with IPF; cited from earlier work
[2] = system: progressive pulmonary fibrosis; conditions: patients with PPF, versus placebo, 52-week study period; cited from earlier work
[3] = Moisture sorption isotherms; type: physicochemical; conditions: 25° C., 4-95% RH (FIG. 4)
Procedure: Moisture sorption isotherms were collected in a TA Instrument VTI-SA+ Vapor Sorption Analyzer using approximately 270 mg of sample in a 250 μL ceramic pan. The sample was dried at 30° C. until the loss rate of 0.005 wt %/min was obtained for 10 minutes. The sample was tested at 25° C. and 4, 5, 15, 25, 35, 45, 50, 65, 75, 85, and 95% RH. Equilibration at each RH was reached when the rate of 0.01 wt %/min for 35 minutes was achieved or a maximum of 600 minutes.

Row | hygroscopicity [3] | SMILES | decline in lung function [1] | progression of lung fibrosis (annual rate of decline in FVC) [2]
1 |  | COC(=O)c1ccc2c(c1)NC(=O)/C2=C(\Nc1ccc(N(C)C(=O)CN2CCN(C)CC2)cc1)c1ccccc1 [nintedanib] | significantly reduce the decline in lung function | slower progression of lung fibrosis
2 | non-hygroscopicity | CCCN(C)C(=O)OCc1c(-c2ccc(O[C@H]3CCC[C@H](C(=O)O)C3)c(C)n2)nnn1C [Form A] |  | 
3 |  | Cc1ccc(=O)n(-c2ccccc2)c1 [pirfenidone] | significantly reduce the decline in lung function | 
